Results as given in ChEMBL document CHEMBL1201862, “PubChem BioAssay data set” (2004).
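Following 48 hours of exposure in 96-well plates, responses at five concentrations were used to interpolate endpoints linearly. GI50 is the concentration that inhibits growth by half.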 The source made the active and inactive calls. No stated cut-off is given here; in the data, active = GI50 up to about 1.1 µM and inactive = higher.

Key:
Test in all cases: DTP human tumour cell line panel, 48 h
ACHN = tested on: ACHN
IGROV-1 = tested on: IGROV-1
HOP-18 = tested on: HOP-18
HCT-116 = tested on: HCT-116
SN12C = tested on: SN12C
KM-20L2 = tested on: KM-20L2
NCI-H522 = tested on: NCI-H522
SF-539 = tested on: SF-539
LXFL 529 = tested on: LXFL 529
TK-10 = tested on: TK-10
DMS-273 = tested on: DMS-273
M19-MEL = tested on: M19-MEL
HOP-92 = tested on: HOP-92
NCI-H226 = tested on: NCI-H226
HCC 2998 = tested on: HCC 2998
OVCAR-4 = tested on: OVCAR-4
KM12 = tested on: KM12
LOX IMVI = tested on: LOX IMVI
UO-31 = tested on: UO-31
DMS-114 = tested on: DMS-114
Malme-3M = tested on: Malme-3M
COLO 205 = tested on: COLO 205
CCRF-CEM = tested on: CCRF-CEM
UACC-62 = tested on: UACC-62
786-0 = tested on: 786-0
A549 = tested on: A549
A498 = tested on: A498
SF-295 = tested on: SF-295
SW-620 = tested on: SW-620
SK-MEL-28 = tested on: SK-MEL-28
XF498 = tested on: XF498
M14 = tested on: M14
SK-OV-3 = tested on: SK-OV-3
HOP-62 = tested on: HOP-62
HCT-15 = tested on: HCT-15
HL-60 = tested on: HL-60
K562 = tested on: K562
OVCAR-8 = tested on: OVCAR-8
NCI-H23 = tested on: NCI-H23
DLD-1 = tested on: DLD-1
SNB-78 = tested on: SNB-78
RXF 393 = tested on: RXF 393
OVCAR-5 = tested on: OVCAR-5
SNB-75 = tested on: SNB-75
SK-MEL-2 = tested on: SK-MEL-2
EKVX = tested on: EKVX
HT-29 = tested on: HT-29
U-251 = tested on: U-251
UACC-257 = tested on: UACC-257
RPMI-8226 = tested on: RPMI-8226
SNB-19 = tested on: SNB-19
MOLT-4 = tested on: MOLT-4
NCI-H460 = tested on: NCI-H460
CAKI-1 = tested on: CAKI-1
SF-268 = tested on: SF-268
SK-MEL-5 = tested on: SK-MEL-5
OVCAR-3 = tested on: OVCAR-3
RXF 631 = tested on: RXF 631

Structure (SMILES): C[N+](C)(C)CC(=O)N/N=C(/C=C/c1ccccc1)CC1OC(=O)c2ccccc21 (centres undefined)
- GI50 (ACHN): > 100 µM (inactive)
- GI50 (IGROV-1): > 100 µM (inactive)
- GI50 (HOP-18): > 100 µM (inactive)
- GI50 (HCT-116): > 100 µM (inactive)
- GI50 (SN12C): > 100 µM (inactive)
- GI50 (KM-20L2): > 100 µM (inactive)
- GI50 (NCI-H522): > 100 µM (inactive)
- GI50 (SF-539): > 100 µM (inactive)
- GI50 (LXFL 529): > 100 µM (inactive)
- GI50 (TK-10): > 100 µM (inactive)
- GI50 (DMS-273): > 100 µM (inactive)
- GI50 (M19-MEL): > 100 µM (inactive)
- GI50 (HOP-92): > 10 µM (inactive)
- GI50 (NCI-H226): > 100 µM (inactive)
- GI50 (HCC 2998): > 100 µM (inactive)
- GI50 (OVCAR-4): > 100 µM (inactive)
- GI50 (KM12): > 100 µM (inactive)
- GI50 (LOX IMVI): > 10 µM (inactive)
- GI50 (UO-31): > 100 µM (inactive)
- GI50 (DMS-114): > 100 µM (inactive)
- GI50 (Malme-3M): > 100 µM (inactive)
- GI50 (COLO 205): > 100 µM (inactive)
- GI50 (CCRF-CEM): > 100 µM (inactive)
- GI50 (UACC-62): > 100 µM (inactive)
- GI50 (786-0): > 100 µM (inactive)
- GI50 (A549): > 100 µM (inactive)
- GI50 (A498): > 100 µM (inactive)
- GI50 (SF-295): > 10 µM (inactive)
- GI50 (SW-620): > 100 µM (inactive)
- GI50 (SK-MEL-28): > 100 µM (inactive)
- GI50 (XF498): > 100 µM (inactive)
- GI50 (M14): > 100 µM (inactive)
- GI50 (SK-OV-3): > 100 µM (inactive)
- GI50 (HOP-62): > 100 µM (inactive)
- GI50 (HCT-15): > 100 µM
- GI50 (HL-60): > 100 µM (inactive)
- GI50 (K562): > 100 µM (inactive)
- GI50 (OVCAR-8): > 100 µM (inactive)
- GI50 (NCI-H23): > 10 µM (inactive)
- GI50 (DLD-1): > 100 µM (inactive)
- GI50 (SNB-78): > 100 µM (inactive)
- GI50 (RXF 393): > 100 µM (inactive)
- GI50 (OVCAR-5): > 10 µM (inactive)
- GI50 (SNB-75): > 100 µM (inactive)
- GI50 (SK-MEL-2): > 100 µM (inactive)
- GI50 (EKVX): > 100 µM (inactive)
- GI50 (HT-29): > 10 µM (inactive)
- GI50 (U-251): > 100 µM (inactive)
- GI50 (UACC-257): > 100 µM (inactive)
- GI50 (RPMI-8226): > 100 µM (inactive)
- GI50 (SNB-19): > 100 µM (inactive)
- GI50 (MOLT-4): > 100 µM (inactive)
- GI50 (NCI-H460): > 100 µM (inactive)
- GI50 (CAKI-1): > 100 µM (inactive)
- GI50 (SF-268): > 100 µM (inactive)
- GI50 (SK-MEL-5): > 100 µM (inactive)

Structure (SMILES): COc1cccc(C2C(C(=O)Nc3cc(=O)n(C)c(=O)n3C)=C(C)NC(C)=C2C(=O)Nc2cc(=O)n(C)c(=O)n2C)c1O
- GI50 (ACHN): > 100 µM (inactive)
- GI50 (IGROV-1): > 100 µM (inactive)
- GI50 (SN12C): > 100 µM (inactive)
- GI50 (KM-20L2): > 100 µM (inactive)
- GI50 (NCI-H522): > 100 µM (inactive)
- GI50 (SF-539): > 100 µM (inactive)
- GI50 (LXFL 529): > 100 µM (inactive)
- GI50 (TK-10): > 100 µM (inactive)
- GI50 (M19-MEL): > 100 µM (inactive)
- GI50 (HOP-92): > 100 µM (inactive)
- GI50 (NCI-H226): > 100 µM (inactive)
- GI50 (HCC 2998): > 100 µM (inactive)
- GI50 (OVCAR-4): > 100 µM (inactive)
- GI50 (KM12): > 100 µM (inactive)
- GI50 (LOX IMVI): > 100 µM (inactive)
- GI50 (UO-31): > 100 µM (inactive)
- GI50 (DMS-114): > 100 µM (inactive)
- GI50 (Malme-3M): > 100 µM (inactive)
- GI50 (COLO 205): > 100 µM (inactive)
- GI50 (OVCAR-3): > 100 µM (inactive)
- GI50 (CCRF-CEM): 86.7 µM (inactive)
- GI50 (786-0): > 100 µM (inactive)
- GI50 (A549): > 100 µM (inactive)
- GI50 (A498): > 100 µM (inactive)
- GI50 (SF-295): > 100 µM (inactive)
- GI50 (SW-620): > 100 µM (inactive)
- GI50 (SK-MEL-28): > 100 µM (inactive)
- GI50 (XF498): > 100 µM (inactive)
- GI50 (M14): > 100 µM (inactive)
- GI50 (SK-OV-3): > 100 µM (inactive)
- GI50 (RXF 631): > 100 µM (inactive)
- GI50 (HOP-62): > 100 µM (inactive)
- GI50 (HL-60): > 100 µM (inactive)
- GI50 (K562): > 100 µM (inactive)
- GI50 (OVCAR-8): > 100 µM (inactive)
- GI50 (NCI-H23): > 100 µM (inactive)
- GI50 (DLD-1): > 100 µM (inactive)
- GI50 (SNB-78): > 100 µM (inactive)
- GI50 (RXF 393): > 100 µM (inactive)
- GI50 (OVCAR-5): > 100 µM (inactive)
- GI50 (SNB-75): 23.9 µM (inactive)
- GI50 (SK-MEL-2): > 100 µM (inactive)
- GI50 (EKVX): > 100 µM (inactive)
- GI50 (HT-29): > 100 µM (inactive)
- GI50 (U-251): > 100 µM (inactive)
- GI50 (UACC-257): > 100 µM (inactive)
- GI50 (RPMI-8226): 66.1 µM (inactive)
- GI50 (SNB-19): > 100 µM (inactive)
- GI50 (MOLT-4): > 100 µM (inactive)
- GI50 (NCI-H460): > 100 µM (inactive)
- GI50 (CAKI-1): > 100 µM (inactive)
- GI50 (SF-268): > 100 µM (inactive)
- GI50 (SK-MEL-5): > 100 µM (inactive)
